Laboratory results as given in US12648946B2, “Combination of antibody-pyrrolobenzodiazepine derivative conjugate and PARP inhibitor” (DAIICHI SANKYO COMPANY, LIMITED, priority 2019, dated 2026).
Where two headings read alike, the source gives them in different places.

What was measured:
[1] = tested on: human pharyngeal cancer cell line FaDu; experiment: Cell growth inhibition test (3); format: cell-based; conditions: 144 h
Method: The human pharyngeal cancer cell line FaDu obtained from ATCC (American Type Culture Collection) was used for evaluation. Cells were prepared with MEM containing 10% fetal bovine serum (GE Healthcare), MEM Non-Essential Amino Acids Solution (Thermo Fisher Scientific), and Sodium Pyruvate (Thermo Fisher Scientific) (Thermo Fisher Scientific; hereinafter, referred to as EMEM medium) to reach 6.25×10^3 cells/mL, and 80 μL portions of them were added into a 96-well cell culture microplate. After addition of the cells, the cells were cultured at 37° C. and 5% CO2 overnight.
On the next day, 10 μL portions of pyrrolobenzodiazepine derivative A, B, or C diluted with EMEM medium to 100 pM, 50 pM, 25 pM, 12.5 pM, 6.25 pM, 3.13 pM, 1.56 pM, or 0.78 pM were added to the microplate. To each well without any pyrrolobenzodiazepine derivative, 10 μL of EMEM medium was added. Further, 10 μL portions of talazoparib prepared with EMEM medium to reach 2 nM were added to the microplate. To each well without talazoparib, 10 μL of EMEM medium was added. Thereafter, the microplate was cultured at 37° C. and 5% CO2 for 6 days. After culturing, the microplate was taken out of the incubator, and left to stand at room temperature for 30 minutes. CellTiter-Glo Luminescent Cell Viability Assay (Promega Corporation) in an amount equivalent to that of the culture solution was added, and stirred using a plate mixer. The microplate was left to stand at room temperature for 10 minutes, and thereafter the amount of emission was measured by using a plate reader (PerkinElmer).
Cell survival rates in wells with derivative A, B, or C were calculated by using the following formula.
[formula] • a: Mean value of amounts of emission from wells with derivative A, B, or C • b: Mean value of amounts of emission from wells with medium • IC50 values were calculated by using the following formula.
(§1) [formula] • a: Concentration of derivative A, B, or C, a • b: Concentration of derivative A, B, or C, b • c: Cell survival rate when derivative A, B, or C of concentration a was added • d: Cell survival rate when derivative A, B, or C of concentration b was added • a and b satisfy a>b at points sandwiching a cell survival rate of 50%.
Cell survival rates in wells with derivative A, B, or C added together with 2 nM talazoparib were calculated by using the following formula.
[formula] • a: Mean value of amounts of emission from wells with derivative A, B, or C added together with 2 nM talazoparib • b: Mean value of amounts of emission from wells with 2 nM talazoparib • IC50 values were calculated by using the following formula.
as §1, with “and 2 nM talazoparib were” for “was”

[2] = tested on: human pancreatic cancer cell line CFPAC-1; experiment: Antitumor test (1), subcutaneous xenograft; format: in vivo, mouse; conditions: single administration, talazoparib 0.8 mg/kg oral for 5 days from Day 0, Day 35, CFPAC-1
Method: Mouse: Five- to six-week-old female BALB/c nude mice (Charles River Laboratories Japan, Inc.) were subjected to experiment. Assay and calculation formula: In all of the studies, the major axis and minor axis of a tumor were measured twice a week by using an electronic digital caliper ([…] Corp.), and the tumor volume (mm^3) was calculated. The calculation formula is as shown below. [formula] Each of the anti-CLDN6 antibody-drug conjugate ADC1, the anti-HER2 antibody-drug conjugate ADC2, and the anti-TROP2 antibody-drug conjugate ADC3 was diluted with ABS buffer (10 mM acetate buffer (pH 5.5), 5% sorbitol), and a liquid volume of 10 mL/kg was intravenously administered into the tail vein. […] LLC)/Dulbecco's Phosphate-Buffered Saline, and then a liquid volume of 10 mL/kg was intraperitoneally administered. […] LLC)/Dulbecco's Phosphate-Buffered Saline, and then a liquid volume of 10 mL/kg was orally administered. Niraparib was dissolved in DMSO, diluted with 0.5% methylcellulose, and then a liquid volume of 10 mL/kg was orally administered. The described method is common to Examples 34 to 37. […]

Compound | IC50 ([1]; read-out: IC50, growth-suppressing effect, added singly, FaDu, 6 days (test 3)) [pM] | IC50 ([1]; read-out: IC50, growth-suppressing effect, added together with 2 nM talazoparib, FaDu, 6 days) [pM] | inhibition at 0.002 µM ([1]; 2 nM talazoparib alone, 6 days) [%] | tumor growth inhibition (TGI) [2] [%]
COc1ccc(C2=CN3C(=O)c4cc(OC)c(OCCCCCOc5cc6c(cc5OC)C(=O)N5CC7(CC7)C[C@H]5C=N6)cc4NC[C@@H]3C2)cc1 [derivative A, (11a′S)-7′-Methoxy-8′-[(5-{[(11aS)-7-methoxy-2-(4-methoxyphenyl)-5-oxo-5,10,11,11a-tetrahydro-1H-pyrrolo[2,1-c][1,4]benzodiazepin-8-yl]oxy}pentyl)oxy]-1′,11a′-dihydro-5′H-spiro[cyclopropane-1,2′-pyrrolo[2,1-c][1,4]benzodiazepine]-5′-one] | 7.7 | 4.7 | – | –
Cn1ncnc1[C@H]1c2n[nH]c(=O)c3cc(F)cc(c23)N[C@@H]1c1ccc(F)cc1 [talazoparib] | – | – | < 10 | 17
